According to patent US20050197350A1, “Novel quinoline, tetrahydroquinazoline, and pyrimidine derivatives and methods of treatment related to the use thereof” (TAISHO PHARMACEUTICAL CO., LTD., priority 2003, published 2005):

Each compound was assayed on MCH receptors (assay: MCH receptor activity class (method not given)). Details: MCH receptor activity class 1-3 (percent of control at 10^-7 M or IC50).
In the case of CN(C)c1ccnc(N[C@H]2CC[C@@H](CNC(=O)Nc3cccc(Cl)c3Cl)CC2)n1 [compound 2440], the class is reported as 1 (Class 1: The value of percent of control at 10^−7 M was less than 40% or the value of IC50 was less than 50 nM.).
In the case of Cc1c(Cl)cccc1NC(=S)N[C@H]1CC[C@@H](Nc2nccc(N(C)C)n2)CC1 [compound 2351], the class is reported as 3 (Class 3 The value of percent of control at 10^−7 M was more than 60% or the value of IC50 was more than 200 nM.).
For CC(C)c1ccccc1NC(=O)NC[C@H]1CC[C@@H](Nc2nc3c(c(N(C)C)n2)CCCC3)CC1 [compound 2472], the class was 3 (Class 3 The value of percent of control at 10^−7 M was more than 60% or the value of IC50 was more than 200 nM.).

Same assay, conditions: MCH receptor; class by percent of control at 10^-7 M or IC50
For CCC(C(=O)NC[C@H]1CC[C@@H](Nc2cc(N(C)C)c3ccccc3n2)CC1)c1ccccc1 (relative stereo) [compound 193], the class was 3 (Class 3 The value of percent of control at 10^−7 M was more than 60% or the value of IC50 was more than 200 nM.).
CN(C)c1nc(N[C@H]2CC[C@@H](NC(=S)Nc3ccc(-n4cccn4)cc3)CC2)nc2c1CCCC2 [compound 2082] was tested, and the class was 3 (Class 3 The value of percent of control at 10^−7 M was more than 60% or the value of IC50 was more than 200 nM.).
CN(C)c1cc(N[C@H]2CC[C@@H](CNC(=O)c3ccccc3SC(F)F)CC2)nc2ccccc12 [compound 209] was tested, and the class was 3 (Class 3 The value of percent of control at 10^−7 M was more than 60% or the value of IC50 was more than 200 nM.).
CN(C)c1cc(N[C@H]2CC[C@@H](NC(=O)c3ccc(OC(F)(F)F)c(Cl)c3)CC2)nc2ccccc12 [compound 144] was tested, and the class was 3 (Class 3 The value of percent of control at 10^−7 M was more than 60% or the value of IC50 was more than 200 nM.).

Same assay, conditions: activity class 1-3: percent of control at 10^-7 M or IC50
With C=CCOC(=O)N[C@H]1CC[C@@H](Nc2cc(N(C)C)c3ccccc3n2)CC1 [compound 1550] the class was 3 (Class 3 The value of percent of control at 10^−7 M was more than 60% or the value of IC50 was more than 200 nM.).
For CN(C)c1ccnc(N[C@H]2CC[C@@H](CNCCCCCCc3ccccc3)CC2)n1 [compound 1526], the class was 3 (Class 3 The value of percent of control at 10^−7 M was more than 60% or the value of IC50 was more than 200 nM.).
CN(C)c1cc(N[C@H]2CC[C@@H](CNC(=O)OCc3ccccc3)CC2)nc2ccccc12 [compound 1571] was tested, and the class was 3 (Class 3 The value of percent of control at 10^−7 M was more than 60% or the value of IC50 was more than 200 nM.).
For CN(C)c1ccnc(N[C@H]2CC[C@@H](CNC(=O)Oc3ccc(Br)cc3)CC2)n1 [compound 1643], the class was 3 (Class 3 The value of percent of control at 10^−7 M was more than 60% or the value of IC50 was more than 200 nM.).
For COc1cc(COC(=O)NC[C@H]2CC[C@@H](Nc3nc4c(c(N(C)C)n3)CCCC4)CC2)c([N+](=O)[O-])cc1OC [compound 1601], the class was 3 (Class 3 The value of percent of control at 10^−7 M was more than 60% or the value of IC50 was more than 200 nM.).

Same assay, conditions: activity class per percent of control at 10^-7 M or IC50
In the case of CN(C)c1nc(N[C@H]2CC[C@@H](NC(=O)CCCc3cccs3)CC2)nc2c1CCCC2 [compound 1022], the class is reported as 3 (Class 3 The value of percent of control at 10^−7 M was more than 60% or the value of IC50 was more than 200 nM.).
With Cc1ccc(S(=O)(=O)n2ccc(C(=O)N[C@H]3CC[C@@H](Nc4nc5c(c(N(C)C)n4)CCCC5)CC3)c2)cc1 [compound 1038] the class was 3 (Class 3 The value of percent of control at 10^−7 M was more than 60% or the value of IC50 was more than 200 nM.).
Cc1cc(CN[C@H]2CC[C@@H](Nc3cc(N(C)C)c4ccccc4n3)CC2)c(C)n1-c1ccccc1 [compound 1109] was tested, and the class was 3 (Class 3 The value of percent of control at 10^−7 M was more than 60% or the value of IC50 was more than 200 nM.).

Same assay, conditions: class 1-3 by percent of control at 10^-7 M or IC50
In the case of CN(C)c1nc(N[C@H]2CC[C@@H](NC(=O)c3ccc(F)c(F)c3)CC2)nc2c1CCCC2 [compound 469], the class is reported as 1 (Class 1: The value of percent of control at 10^−7 M was less than 40% or the value of IC50 was less than 50 nM.).
CN(C)c1nc(N[C@H]2CC[C@@H](NC(=O)c3cccc(C#N)c3)CC2)nc2c1CCCC2 [compound 465] was tested, and the class was 1 (Class 1: The value of percent of control at 10^−7 M was less than 40% or the value of IC50 was less than 50 nM.).
With CN(C)c1nc(N[C@H]2CC[C@@H](NC(=O)COc3c(F)c(F)c(F)c(F)c3F)CC2)nc2c1CCCC2 [compound 558] the class was 3 (Class 3 The value of percent of control at 10^−7 M was more than 60% or the value of IC50 was more than 200 nM.).

Same assay, conditions: class by percent of control at 10^-7 M or IC50
For CN(C)c1nc(N[C@H]2CC[C@@H](CNC(=O)c3cc(Cl)sc3Cl)CC2)nc2c1CCCC2 [compound 645], the class was 3 (Class 3 The value of percent of control at 10^−7 M was more than 60% or the value of IC50 was more than 200 nM.).
In the case of CN(C)c1nc(N[C@H]2CC[C@@H](NC(=O)NCc3ccccc3F)CC2)nc2c1CCCC2 [compound 1713], the class is reported as 2 (Class 2: The value of percent of control at 10^−7 M was from 40% to 60% or the value of IC′50 was from 50 nM to 200 nM.).
In the case of CN(C)c1cc(N[C@H]2CC[C@@H](CNCc3cn(C)c4ccccc34)CC2)nc2ccccc12 [compound 1179], the class is reported as 3 (Class 3 The value of percent of control at 10^−7 M was more than 60% or the value of IC50 was more than 200 nM.).
In the case of CN(C)c1ccnc(N[C@H]2CC[C@@H](CNC(=O)c3ccc(F)cc3Cl)CC2)n1 [compound 406], the class is reported as 3 (Class 3 The value of percent of control at 10^−7 M was more than 60% or the value of IC50 was more than 200 nM.).
CN(C)c1nc(N[C@H]2CC[C@@H](NC(=O)Nc3cccc(SC(F)(F)F)c3)CC2)nc2c1CCCC2 [compound 1866] was tested, and the class was 3 (Class 3 The value of percent of control at 10^−7 M was more than 60% or the value of IC50 was more than 200 nM.).
CN(C)c1nc(N[C@H]2CC[C@@H](NC(=O)Nc3cc(C(F)(F)F)ccc3Cl)CC2)nc2c1CCCC2 [compound 1855] was tested, and the class was 3 (Class 3 The value of percent of control at 10^−7 M was more than 60% or the value of IC50 was more than 200 nM.).
Cc1cc(NC(=O)N[C@H]2CC[C@@H](Nc3nccc(N(C)C)n3)CC2)c(C(F)(F)F)o1 [compound 2212] was tested, and the class was 3 (Class 3 The value of percent of control at 10^−7 M was more than 60% or the value of IC50 was more than 200 nM.).
With Cc1cccc(N(CCC#N)CCN[C@H]2CC[C@@H](Nc3nc4c(c(N(C)C)n3)CCCC4)CC2)c1 [compound 1489] the class was 2 (Class 2: The value of percent of control at 10^−7 M was from 40% to 60% or the value of IC′50 was from 50 nM to 200 nM.).
In the case of CN(C)c1ccnc(N[C@H]2CC[C@@H](NC(=O)Nc3ccc(F)cc3)CC2)n1 [compound 2184], the class is reported as 3 (Class 3 The value of percent of control at 10^−7 M was more than 60% or the value of IC50 was more than 200 nM.).
CN(C)c1cc(N[C@H]2CC[C@@H](NC(=O)c3cc(C(C)(C)C)c(O)c(C(C)(C)C)c3)CC2)nc2ccccc12 [compound 787] was tested, and the class was 3 (Class 3 The value of percent of control at 10^−7 M was more than 60% or the value of IC50 was more than 200 nM.).
For Cc1ccc(-c2ccc(C(=O)NC[C@H]3CC[C@@H](Nc4cc(N(C)C)c5ccccc5n4)CC3)o2)c([N+](=O)[O-])c1 [compound 801], the class was 3 (Class 3 The value of percent of control at 10^−7 M was more than 60% or the value of IC50 was more than 200 nM.).
In the case of COc1cccc(CC(=O)NC[C@H]2CC[C@@H](Nc3nccc(N(C)C)n3)CC2)c1 [compound 412], the class is reported as 2 (Class 2: The value of percent of control at 10^−7 M was from 40% to 60% or the value of IC′50 was from 50 nM to 200 nM.).
In the case of COc1cc(CNC[C@H]2CC[C@@H](Nc3nc4c(c(N(C)C)n3)CCCC4)CC2)cc(I)c1O [compound 1381], the class is reported as 1 (Class 1: The value of percent of control at 10^−7 M was less than 40% or the value of IC50 was less than 50 nM.).
With CN(C)c1ccnc(N[C@H]2CC[C@@H](NC(=O)C(CC(=O)c3ccc(Br)cc3)c3c[nH]c4ccccc34)CC2)n1 (relative stereo) [compound 856] the class was 2 (Class 2: The value of percent of control at 10^−7 M was from 40% to 60% or the value of IC′50 was from 50 nM to 200 nM.).
In the case of COc1ccc(CNC[C@H]2CC[C@@H](Nc3nc4c(c(N(C)C)n3)CCCC4)CC2)c(OC)c1OC [compound 1374], the class is reported as 3 (Class 3 The value of percent of control at 10^−7 M was more than 60% or the value of IC50 was more than 200 nM.).
For CN(C)c1nc(N[C@H]2CC[C@@H](NCc3c[nH]c4ccccc34)CC2)nc2c1CCCC2 [compound 1328], the class was 3 (Class 3 The value of percent of control at 10^−7 M was more than 60% or the value of IC50 was more than 200 nM.).

Same assay, conditions: class by percent of control at 10^−7 M or IC50
COc1cc(OC)cc(C(=O)N[C@H]2CC[C@@H](Nc3nc(C)cc(N(C)C)n3)CC2)c1 [compound 2959, N-(cis-4-{[4-(dimethylamino)-6-methylpyrimidin-2-yl]amino}cyclohexyl)-3,5-dimethoxybenzamide] was tested, and the class was 1 (Class 1: The value of percent of control at 10^−7 M was less than 40% or the value of IC50 was less than 50 nM.).
In the case of Cc1ccccc1C(=O)N[C@H]1CC[C@@H](Nc2ncc(C)c(N(C)C)n2)CC1 [compound 2917], the class is reported as 3 (Class 3 The value of percent of control at 10^−7 M was more than 60% or the value of IC50 was more than 200 nM.).
For Cc1cnc(N[C@H]2CC[C@@H](CNC(=O)c3ccc(F)c(F)c3)CC2)nc1N(C)C [compound 2692, N-[(cis-4-{[4-(dimethylamino)-5-methylpyrimidin-2-yl]amino}cyclohexyl)methyl]-3,4-difluorobenzamide], the class was 2 (Class 2: The value of percent of control at 10^−7 M was from 40% to 60% or the value of IC′50 was from 50 nM to 200 nM.).
Cc1cc(N(C)C)nc(NC[C@H]2CC[C@@H](NC(=O)c3ccc(C(F)(F)F)c(F)c3)CC2)n1 [compound 2747] was tested, and the class was 3 (Class 3 The value of percent of control at 10^−7 M was more than 60% or the value of IC50 was more than 200 nM.).
For Cc1cnc(N[C@H]2CC[C@@H](NC(=O)c3cccc(OC(C)C)c3)CC2)nc1N(C)C [compound 2928, N-(cis-4-{[4-(dimethylamino)-5-methylpyrimidin-2-yl]amino}cyclohexyl)-3-isopropoxybenzamide], the class was 2 (Class 2: The value of percent of control at 10^−7 M was from 40% to 60% or the value of IC′50 was from 50 nM to 200 nM.).
